“Also recorded” adds a separate entry of the source.

Data set [1] has as its system RAW 264.7 macrophages. The data set is described as follows: Caveolin-mediated endocytosis of Alexa Fluor 488-albumin. Conditions: EIPA 25 μM, 1 hr; AF488-albumin 1 μg/ml. The format is cell-based. As to the method:
(§1) Clathrin- and caveolin-mediated endocytosis: Receptor-mediated uptake of FITC-transferrin (1 μg/mL; clathrin-mediated endocytosis) and Alexa Fluor 488-albumin ([…]; caveolin-mediated endocytosis) was investigated in RAW 264.7 macrophages following their incubation with ±EIPA (25 μM; 1 hour pre-incubation). Fluorescence intensity was measured using the FL1 channel for FITC and Alexa Fluor 488 (Ex: 488 nm, Em: 530 nm).

The next data set deals with Wild type BMDM. The data set is described as follows: Cytokine secretion, LEGENDplex bead-based immunoassay. Format: cell-based, mouse. As to the method:
Wild type BMDM were incubated with vehicle or treated with EIPA (25 μM, 24 hours). Cytokine secretion into the media was quantified using the LEGENDplex™ (mouse inflammation panel) bead-based immunoassay according to the manufacturer's instructions (BioLegend, San Diego, Calif., USA). Data were acquired using four-color BD FACSCalibur (BD Biosciences, San Jose, Calif., USA) and analyzed using the LEGENDplex Data Analysis software (BioLegend).

Data set [2] deals with RAW 264.7 macrophages. The data set is described as follows: Cell viability assay, LIVE/DEAD Fixable Far Red dye. Format: cell-based. Conditions: EIPA 25 μM, 1 hr, then PMA 4 hours. The method, then: Cell viability assay: RAW 264.7 macrophages were plated in 24 well plates at a density of 1×10^6 cells/mL. Twenty four hours later, macrophages were pre-incubated with vehicle or EIPA (25 μM, 1 hr) and treated with PMA (1 μM, 4 hrs). Cells were fixed in 2% PFA, resuspended in FACS buffer (2% BSA and 0.01% sodium azide in PBS), and stained with the LIVE/DEAD™ Fixable Far Red dye to identify live cells. Fluorescence intensity was measured using the FL4 channel (Ex: 650 nm, Em: 660 nm).

The subject of data set [3] is macrophages (SR-mediated ox-LDL uptake). In words: SR-mediated ox-LDL uptake. Format: cell-based. The settings on record: EIPA 25 μM, 1 hr; ox-LDL 50 μg/ml. As to the method:
(§2) Foam cell formation: THP-1 macrophages or bone marrow-derived macrophages were treated with vehicle, known macropinocytosis stimulators (PMA 1 μM, M-CSF 100 ng/mL or PDGF 200 ng/mL)+/− macropinocytosis inhibitors (imipramine 10 μM or EIPA 25 μM; 1 hour pre-incubation) in the presence of nLDL, ox-LDL, or ac-LDL ([…]) for 24 hours. Cells were fixed in 2% PFA and stained with Nile Red (50 ng/mL) for 7 min. Fluorescence intensity was measured using the FL3 channel for Nile Red (Ex: 488 nm, Em: 670 nm).

Data set [4] has as its system CD36-/-/SR-A-/- BMDM overexpressing HRasG12V. In words: Ras (HRasG12V)-induced ox-/ac-LDL internalization, Nile Red FACS. The format is cell-based, mouse. Conditions: EIPA 25 μM, 1 hr; 50 μg/mL ox-LDL or ac-LDL, 24 hr. The method, then: as §2
HRasG12V mutant adenovirus (AD-HRasG12V) and control adenovirus (AD-GFP) were obtained from Dr. Brian Stansfield. Adenovirus multiplicity of infection (MOI) was calculated according to the OD260 of the adenovirus. Macrophages grown at 60-70% confluence were incubated in 500 μl basal medium containing Ad-GFP or Ad-HRasG12V adenovirus at 200 MOI (multiplicity of infection). After 4 hours, media was replaced with fresh complete tissue culture medium for a continuous culture. Cells were treated as indicated within 48 hours after viral transfection and collected for flow cytometry. Overexpression of adenovirus was confirmed by measuring GFP fluorescence. Fluorescence intensity was measured using the FL1 channel GFP (Ex: 488 nm, Em: 530 nm).

For data set [5], the system named is RAW 264.7 macrophages. The data set is described as follows: Measurement of cholesterol efflux (DiI). Format: cell-based. Conditions: EIPA 25 μM, 1 hour. The method, then: RAW 264.7 macrophages were pretreated with vehicle or EIPA (25 μM, 1 hour) and incubated with PMA (1 μM) in the presence or absence of Dil-LDL (50 μg/mL) at 37° C. for 24 h. Cells were washed 3 times with PBS, RPMI-1640 medium containing 1% FBS was added and cells incubated for another 24 hours. Finally, the medium was collected and Dil fluorescence intensity in the media was measured using a CLARIOstar multi-mode microplate reader.

The test system of data set [6] is RAW 264.7 macrophages. In words: Clathrin-mediated endocytosis of FITC-transferrin. Conditions: EIPA 25 μM, 1 hr; FITC-transferrin 1 μg/ml. The format is cell-based. The method, then:
as §1

In data set [7] the test system is human aortic endothelial cells. In words: qRT-PCR of SR-B1 mRNA expression. The settings on record: EIPA 25 μM, 24 hr. The format is cell-based. A general note: Real-time PCR tracks product formation cycle by cycle.

Take `CCN(c1nc(N)c(C(=O)N=C(N)N)nc1Cl)C(C)C` [EIPA, 5-(N-ethyl-N-isopropyl)amiloride]: the caveolin-dependent albumin internalization result in the data set with RAW 264.7 macrophages [1] is on record as “without inhibiting; also recorded: does not inhibit”. Also, in the data set on Wild type BMDM (EIPA 25 μM, 24 hours, n = 3, vehicle 2.40 ± 0.58), the IL-6 secretion is on record as 1.82 ± 0.40 pg/mL. Moreover, in the data set on Wild type BMDM (EIPA 25 μM, 24 hours, n = 3, vehicle 7.83 ± 1.89), the TNFα secretion stood at 4.76 ± 0.77 pg/mL. In addition, in the data set on Wild type BMDM (EIPA 25 μM, 24 hours, n = 3, vehicle 38.04 ± 6.03), the MCP-1 secretion worked out at 22.19 ± 2.30 pg/mL. Moreover, the “macrophage secretion of TNF-α, MCP-1, and IL-6” value in the data set with Wild type BMDM (in the absence of exogenous lipids) is “does not inhibit”. Moreover, in the data set with RAW 264.7 macrophages [2], the “Cytotoxicity (LIVE/DEAD Fixable Cell Stain)” value is on record as “no cell death”. Moreover, the “SR-mediated ox-LDL uptake” value in data set [3] was “without inhibiting; also recorded: does not inhibit”. Also, the “ox- and ac-LDL internalization (Nile Red fluorescence)” value in data set [4] is reported as “inhibits”. Besides, the “cholesterol efflux in lipid-laden macrophages” value in the data set with RAW 264.7 macrophages [5] is given as “does not promote”. The clathrin-mediated transferrin endocytosis result in the data set on RAW 264.7 macrophages [6] is on record as “without inhibiting; also recorded: does not inhibit”. Further, in data set [7], the “SR-B1 mRNA levels” value was “does not increase”.

(Values after patent publication US20210386754A1, “COMPOSITIONS AND METHODS FOR TREATING ATHEROSCLEROTIC VASCULAR DISEASE” (AUGUSTA UNIVERSITY RESEARCH INSTITUTE, INC., priority 2020, published 2021).)
